In patent publication US8999969B2, “Anti-RSV compounds” (Gilead Sciences, Inc., priority 2009, dated 2015):

Each compound was assayed on RSV strain A2 (assay: in vitro cytoprotection assay against RSV in Hep2 cells). Conditions: human respiratory syncytial virus, HEp-2, 96 h; 1 uM compound; RSV-induced cytopathic effect in Hep2 cells, 4 days, Cell TiterGlo; read-out: RSV % inh. @ 1 uM.
Type: cell-based
Protocol: Antiviral activity against RSV was determined using an in vitro cytoprotection assay in Hep2 cells. […] The method used is similar to methods previously described in Chapman J et al., “RSV604 a novel inhibitor of respiratory syncytial virus replication,” Antimicrob Agents Chemother, 51(9):3346-53 (2007).
Hep2 cells were obtained from ATCC (Manassas, Va.) and maintained in MEM media supplemented with 10% fetal bovine serum and penicillin/streptomycin. Cells were passaged twice a week and kept at subconfluent stage. Commercial stock of RSV strain A2 (Advanced Biotechnologies, Columbia, Md.) was titered before compound testing to determine the appropriate dilution of the virus stock that generates desirable cytopathic effect in Hep2 cells.
For antiviral tests, Hep2 cells were seeded into 96-well plates 24 hours before the assay at a density of 3,000 cells/well. On a separate 96well plate, tested compounds were serially diluted in cell culture media. Eight concentrations in 3-fold serial dilution increments were prepared for each tested compound and 100 uL/well of each dilution was transferred in duplicate onto plates with seeded Hep2 cells. Subsequently, appropriate dilution of virus stock previously determined by titration was prepared in cell culture media and 100 uL/well was added to test plates containing cells and serially diluted compounds. Each plate included three wells of infected untreated cells and three wells of uninfected cells that served as 0% and 100% virus inhibition control, respectively. Following the infection with RSV, testing plates were incubated for 4 days in a tissue culture incubator. After the incubation, RSV-induced cytopathic effect was determined using a Cell TiterGlo reagent (Promega, Madison, Wis.) followed by a luminescence read-out. The percentage inhibition was calculated for each tested concentration relative to the 0% and 100% inhibition controls and the EC50 value for each compound was determined by non-linear regression as a concentration inhibiting the RSV-induced cytopathic effect by 50%. Ribavirin (purchased from Sigma, St. Louis, Mo.) was used as a positive control for antiviral activity.

| SMILES | inhibition at 1 µM |
| --- | --- |
| Cc1cc(C(=O)Nc2ccc(C(=O)N3CCc4cc(C(=O)NC5CC5)sc4-c4ccccc43)cc2)n(C(C)(C)C)n1 [Example 24] | 78% |
| CC(C)(CO)NC(=O)c1cc2c(s1)-c1ccccc1N(C(=O)c1ccc(NC(=O)c3cccnc3N3CCCC3)cc1)CC2 [Example 56] | 93% |
| COC1CN(C(=O)c2cc3c(s2)-c2ccccc2N(C(=O)c2ccc(NC(=O)c4cccnc4N4CCCC4)cc2)CC3)C1 [Example 59] | 43% |
| O=C(Nc1ccc(C(=O)N2CCc3cc(C(=O)NC4CC4)sc3-c3ccccc32)cc1)c1cc(N2CCC2)ccn1 [Example 18] | 98% |
| O=C(NC1CC1)c1cc2c(s1)-c1ccccc1N(C(=O)c1ccc(NC(=O)c3cccnc3N3CC(F)(F)C3)c(F)c1)CC2 [Example 64] | 99% |
| O=C(NC1CC1)c1cc2c(s1)-c1ccccc1N(C(=O)c1ccc(NC(=O)c3ccccc3I)cc1)CC2 [Example 2] | 78% |
| C[C@H](NC(=O)c1cc2c(s1)-c1ccccc1N(C(=O)c1ccc(NC(=O)c3cccnc3N3CCCC3)cc1)CC2)C(N)=O [Example 51] | 46% |
| C[C@H]1CCCN1c1ncccc1C(=O)Nc1ccc(C(=O)N2CCc3cc(C(=O)NC4CC4)sc3-c3ccccc32)cc1 [Example 40] | 98% |
| O=C(NC1CC1)c1cc2c(s1)-c1ccccc1N(C(=O)c1ccc(NC(=O)c3cccc4nccnc34)cc1)CC2 [Example 25] | 64% |
| Cc1ccccc1C(=O)N1CCC(C(=O)Nc2ccc(C(=O)N3CCc4cc(C(=O)NC5CC5)sc4-c4ccccc43)cc2)CC1 [Example 28] | 15% |
| O=C(Nc1ccccn1)c1cc2c(s1)-c1ccccc1N(C(=O)c1ccc(NC(=O)c3cccnc3N3CCCC3)cc1)CC2 [Example 54] | 99% |
| O=C(NC1CC1)c1cc2c(s1)-c1ccccc1N(C(=O)c1ccc(NC(=O)c3cccnc3N3CCC3)cc1)CC2 [Example 46] | 98% |
| O=C(NC1CC1)c1cc2c(s1)-c1ccccc1N(C(=O)c1ccc(NC(=O)c3cnccc3N3CCC3)cc1)CC2 [Example 19] | 100% |
| O=C(NC1CC1)c1cc2c(s1)-c1ccccc1N(C(=O)c1ccc(NC(=O)c3cccnc3N3CC[C@H](F)C3)cc1)CC2 [Example 39] | 94% |
| O=C(NC1CC1)c1cc2c(s1)-c1ccccc1N(C(=O)c1ccc(NC(=O)c3ccccc3N3CCCC3)cc1)CC2 [Example 3] | 100% |
| COc1ccc(C(=O)Nc2ccc(C(=O)N3CCc4cc(C(=O)NC5CC5)sc4-c4ccccc43)cc2)cc1 [Example 15] | 97% |
| C[C@@H]1CCCN1c1ncccc1C(=O)Nc1ccc(C(=O)N2CCc3cc(C(=O)NC4CC4)sc3-c3ccccc32)cc1 [Example 6] | 100% |
| O=C(NCc1nccs1)c1cc2c(s1)-c1ccccc1N(C(=O)c1ccc(NC(=O)c3cccnc3N3CCCC3)cc1)CC2 [Example 52] | 100% |
| O=C(NC1CC1)c1cc2c(s1)-c1ccccc1N(C(=O)c1ccc(NC(=O)c3ccncc3Br)cc1)CC2 [Example 4] | 78% |

| SMILES | inhibition at 1 µM |
| --- | --- |
| Cc1ccsc1C(=O)Nc1ccc(C(=O)N2CCc3cc(C(=O)NC4CC4)sc3-c3ccccc32)cc1 [Example 22] | 90% |
| O=C(Nc1ccc(C(=O)N2CCc3cc(C(=O)NC4CC4)sc3-c3ccccc32)cc1)c1ccc(N2CCC2)nc1 [Example 31] | 30% |
| NC(=O)CCNC(=O)c1cc2c(s1)-c1ccccc1N(C(=O)c1ccc(NC(=O)c3cccnc3N3CCCC3)cc1)CC2 [Example 60] | 35% |
| O=C(NC1CC1)c1cc2c(s1)-c1ccccc1N(C(=O)c1ccc(NS(=O)(=O)c3ccccc3)cc1)CC2 [Example 34] | 90% |
| O=C(NC1CC1)c1cc2c(s1)-c1ccccc1N(C(=O)c1ccc(NC(=O)c3cccnc3N3CC(F)(F)C3)cc1)CC2 [Example 7] | 100% |
| O=C(NCc1ccccn1)c1cc2c(s1)-c1ccccc1N(C(=O)c1ccc(NC(=O)c3cccnc3N3CCCC3)cc1)CC2 [Example 50] | 100% |
| CC(C)c1ccccc1C(=O)Nc1ccc(C(=O)N2CCc3cc(C(=O)NC4CC4)sc3-c3ccccc32)cc1 [Example 13] | 99% |
| NS(=O)(=O)CCNC(=O)c1cc2c(s1)-c1ccccc1N(C(=O)c1ccc(NC(=O)c3cccnc3N3CCCC3)cc1)CC2 [Example 53] | 1% |
| CN(C)C(=O)c1cc2c(s1)-c1ccccc1N(C(=O)c1ccc(NC(=O)c3cccnc3N3CCCC3)cc1)CC2 [Example 55] | 16% |
| Cc1cc(C(=O)Nc2ccc(C(=O)N3CCc4cc(C(=O)NC5CC5)sc4-c4ccccc43)cc2)c(N2CC(F)(F)C2)nn1 [Example 67] | 98% |
| O=C(NC1CC1)c1cc2c(s1)-c1ccccc1N(C(=O)c1ccc(NC(=O)c3ncccc3Br)cc1)CC2 [Example 5] | 79% |
| O=C(NC1CC1)c1cc2c(s1)-c1ccccc1N(C(=O)c1ccc(NC(=O)c3cccnc3N3CC(F)C3)cc1)CC2 [Example 45] | 100% |
| O=C(NC1CC1)c1cc2c(s1)-c1ccccc1N(C(=O)c1ccc(NC(=O)c3cccnc3N3CCCC3)cc1)CC2 [Example 37] | 100% |
| O=C(NC1CC1)c1cc2c(s1)-c1ccccc1N(C(=O)c1ccc(NC(=O)c3cccnc3Br)cc1)CC2 [Example 1] | 76% |
| O=C(NCc1cccs1)c1cc2c(s1)-c1ccccc1N(C(=O)c1ccc(NC(=O)c3cccnc3N3CCCC3)cc1)CC2 [Example 48] | 100% |
| COC[C@@H]1CCCN1c1ncccc1C(=O)Nc1ccc(C(=O)N2CCc3cc(C(=O)NC4CC4)sc3-c3ccccc32)cc1 [Example 43] | 99% |
| O=C(NC1CC1)c1cc2c(s1)-c1ccccc1N(C(=O)c1ccc(NC(=O)c3ccccc3-c3ccc(F)cc3)cc1)CC2 [Example 8] | 100% |
| O=C(NC1CC1)c1cc2c(s1)-c1ccccc1N(C(=O)c1ccc(NC(=O)c3cccnc3N3CC[C@@H](F)C3)cc1)CC2 [Example 38] | 99% |
| COc1ccc(C(=O)Nc2ccc(C(=O)N3CCc4cc(C(=O)NC5CC5)sc4-c4ccccc43)cc2)c(C)c1 [Example 47] | 100% |

| SMILES | inhibition at 1 µM |
| --- | --- |
| O=C(NC1CC1)c1cc2c(s1)-c1ccccc1N(C(=O)c1ccc(NC(=O)c3cccnc3N3CC[C@@H](O)C3)cc1)CC2 [Example 44] | 77% |
| Cn1ccnc1CNC(=O)c1cc2c(s1)-c1ccccc1N(C(=O)c1ccc(NC(=O)c3cccnc3N3CCCC3)cc1)CC2 [Example 62] | 90% |
| O=C(NC1CC1)c1cc2c(s1)-c1ccccc1N(C(=O)c1ccc(NC(=O)c3cccnc3C(F)(F)F)cc1F)CC2 [Example 26] | 47% |
| O=C(NCCF)c1cc2c(s1)-c1ccccc1N(C(=O)c1ccc(NC(=O)c3cccnc3N3CCCC3)cc1)CC2 [Example 58] | 100% |
| Cn1ccc2cccc(C(=O)Nc3ccc(C(=O)N4CCc5cc(C(=O)NC6CC6)sc5-c5ccccc54)cc3)c21 [Example 20] | 99% |
| O=C(NC1CC1)c1cc2c(s1)-c1ccccc1N(C(=O)c1ccc(NC(=O)c3ccccc3-c3cccs3)cc1)CC2 [Example 11] | 99% |
| O=C(NC1CC1)c1cc2c(s1)-c1ccccc1N(C(=O)c1ccc(NC(=O)c3cccnc3N3CC4(COC4)C3)cc1)CC2 [Example 10] | 100% |
| O=C(NC1CC1)c1cc2c(s1)-c1ccccc1N(C(=O)c1ccc(NC(=O)c3ccncc3N3CCC3)cc1)CC2 [Example 12] | 97% |
| O=C(NC1CC1)c1cc2c(s1)-c1ccccc1N(C(=O)c1ccc(NC(=O)c3cccnc3N3CCC(F)(F)C3)cc1)CC2 [Example 9] | 100% |
| Cn1nc(C(=O)Nc2ccc(C(=O)N3CCc4cc(C(=O)NC5CC5)sc4-c4ccccc43)cc2)c2ccccc21 [Example 27] | 41% |
| Cc1cc(C(=O)Nc2ccc(C(=O)N3CCc4cc(C(=O)NC5CC5)sc4-c4ccccc43)cc2)c(N2CCCC2)nn1 [Example 65] | 95% |
| Cn1nccc1C(=O)Nc1ccc(C(=O)N2CCc3cc(C(=O)NC4CC4)sc3-c3ccccc32)cc1 [Example 29] | 22% |
| O=C(NC1CC1)c1cc2c(s1)-c1ccccc1N(C(=O)c1ccc(NC(=O)c3cnccc3C(F)(F)F)cc1)CC2 [Example 14] | 100% |
| NC(=O)c1cc2c(s1)-c1ccccc1N(C(=O)c1ccc(NC(=O)c3cccnc3N3CCCC3)cc1)CC2 [Example 61] | 84% |
| O=C(NC1CC1)c1cc2c(s1)-c1ccccc1N(C(=O)c1ccc(NC(=O)c3ccccc3Cc3ccccc3)cc1)CC2 [Example 17] | 100% |
| O=C(N[C@@H]1CCOC1)c1cc2c(s1)-c1ccccc1N(C(=O)c1ccc(NC(=O)c3cccnc3N3CCCC3)cc1)CC2 [Example 57] | 95% |
| O=C(Nc1ccc(C(=O)N2CCc3cc(C(=O)NC4CC4)sc3-c3ccccc32)cc1)c1ccnc(N2CCC2)c1 [Example 21] | 94% |
| O=C(NC1CC1)c1cc2c(s1)-c1ccccc1N(C(=O)c1ccc(NC(=O)c3ccncc3N3CC(F)C3)cc1)CC2 [Example 63] | 99% |
